The values below are quoted from earlier work in PMC7751758, “Repurposing Sigma-1 Receptor Ligands for COVID-19 Therapy?” (Frontiers in Pharmacology, 2020).

Broadly, the IC50 is the concentration at which inhibition is half-maximal. As a reminder, the Ki is a dissociation constant, usually derived from enzyme kinetics or from competition with a known ligand. One may read the CC50 as the concentration at which the toxic effect on the cells reaches its halfway point.

In one data set the test system is CHIKV. The following applies: cytopathic effect induced by Chikungunya virus and other alphaviruses (Semliki Forest virus and Sindbis virus), ref Pohjala et al., 2011, listed as chloroquine. On the technique in general: Damage to the host cells serves as the signal in cytopathic effect assays.
A further data set deals with HCoV-229E. To be noted: replication in cell culture, ref de Wilde et al., 2014, listed as chloroquine.
The subject of data set [1] is HCoV-OC43. To be noted: replication in HRT-18 cells, ref Keyaerts et al., 2009.
The test system of data set [2] is EBOV. The following applies: mouse, in vivo.
The subject of data set [3] is EBOV. To be noted: guinea pig, in vivo.
The test system of data set [4] is HCoV-OC43. To be noted: mothers treated daily with chloroquine (15 mg/kg); ref Keyaerts et al., 2009.
A further data set relates to COVID-19. To be noted: 2020.
The conditions of data set [5]: associated with bioaccumulation of the drugs; ref Palmeira et al., 2020.
Another data set concerns HCV. The following applies: entry and assembly steps in Huh-7.5.1 cells, ref Cheng et al., 2013.
Data set [6] has as its system SARS-CoV-2 in Huh-7 cells. The following applies: for antiviral potency: devoid of cytotoxicity, ref Mirabelli et al., 2020.
Another data set has as its system Ebola. To be noted: in vivo.
Data set [7] deals with SARS-CoV-2 in iPSC-derived alveolar epithelial type 2 cells (iAEC2s). The following applies: ref Mirabelli et al., 2020, read-out: IC50 against SARS-CoV-2.
The subject of another data set is Huh-7 cells. The following applies: ref Mirabelli et al., 2020; read-out: CC50 (cell toxicity).
A further data set deals with HIV. To be noted: exposure to cocaine, by activating Sig-1R; ref Roth et al., 2005.

“Also recorded” adds a separate entry of the source. Some results are limits rather than exact numbers.

In the case of `CCN(CC)CCCC(C)Nc1ccnc2cc(Cl)ccc12` (centres unmarked) [Chloroquine], on Sigma-1 receptor (read-out: Sigma-1 receptor affinity IC50), the IC50 was 2300 nM. Moreover, at Sigma-1 receptor (read-out: Sigma-1 receptor affinity Ki), the Ki was 109 nM. Also, the “Antiviral activity: Virus” value is “inhibited the replication of SARS-CoV; also recorded: in vitro activity” with SARS-CoV; “in vitro activity” with MERS-CoV; “inhibition of the cytopathic effect” in the data set on CHIKV; “inhibited the replication” with HCoV-229E; “inhibited HCoV-OC43 replication” with HCoV-OC43 [1]. For the same compound, in the data set on EBOV [2], the “survival of infected mice” value is “increased survival”. In the data set on EBOV [3], the survival entry is reported as “none of the tested doses increased survival”. In the data set with HCoV-OC43 [4], the “HCoV-OC43-induced death in newborn mice” value was “prevented HCoV-OC43-induced death”. Also, the “decreasing the likelihood of death or speeding recovery” value in the data set on COVID-19 (large, randomized clinical trial in hospitalized patients, ref FDA communication) is on record as “no benefit”. Moreover, the side effects entry in data set [5] is “serious retinopathies and cardiopathies”. Further, the cellular toxicity in the data set with Ebola virus (EBOV) is listed as below 30%. Besides, in the data set on Ebola virus (EBOV), the viral inhibition is above 50%.
Consider `CCCCc1oc2ccccc2c1C(=O)c1cc(I)c(OCCN(CC)CC)c(I)c1` [Amiodarone], for which the “Antiviral activity: Virus” value was “inhibit” with HCV and “inhibit the spreading in vitro of SARS-CoV” in the data set with SARS-CoV. For the same compound, the “survival of infected mice” value in the data set with EBOV [2] is reported as “increased survival”. Also, the antiviral potency entry in data set [6] is on record as “below 1 µM”. Also, the “outcome of a patient with COVID-19-related respiratory failure” value in the data set with COVID-19 (case report, off-label short therapy 5 days with supportive measures, ref Castaldo et al.) is “recovered”. Further, the “case fatality rate compared with local historical data” value in the data set on Ebola was “decrease in case fatality rate”. In the data set on Ebola virus (EBOV), the viral inhibition is on record as above 50%.
With `Cc1cc(OCCN2CCOCC2)nn1-c1ccc2ccccc2c1` [E-52862 (S1RA)], in [6], the antiviral potency result was “below 1 µM”. Further, the half-inhibitory concentration (IC50) was 222 nM in [6] (ref Mirabelli et al., 2020, read-out: IC50 against SARS-CoV-2) and 1000 nM in data set [7]. Further, the CC50 in the data set with Huh-7 cells was above 5000 nM.
`COC(=O)[C@H]1[C@@H](OC(=O)c2ccccc2)C[C@@H]2CC[C@H]1N2C` [cocaine]: the HIV infection entry in the data set on HIV is “enhance HIV infection”.
